The subject of one data set is HCT-8 cells. Nature of the data set: Cytotoxicity (cell viability) assay in HCT-8 cells. The class given is cell-based, human. Particulars: uninfected HCT-8 cells, 72 h.
Another data set concerns hCoV-OC43. Nature of the data set: Focus forming reduction assay (FFRA), hCoV-OC43 in HCT-8 cells. To be noted: for EC50 / EC90: hCoV-OC43, FFRA in HCT-8 cells, treatment before, during and after infection, 72 h p.i.; for SI (ratio of CC50 to EC50): hCoV-OC43, HCT-8 cells.

Each structure is given as a SMILES string. Converted amounts (≈) assume the structure as drawn. A value given as a limit tells only on which side of the number the result lay.

Usually CC50 stands for the concentration at which the toxic effect on the cells reaches its halfway point. Read a low CC50 as greater toxicity to the cells. By EC50 is commonly meant the concentration giving half of the maximal effect. In general, EC90 refers to the concentration needed for an effect of 90%. Read a low EC90 as greater potency. `Oc1cc(O)c2c(c1)OC1(c3ccc(O)c(O)c3)Oc3cc(O)c4c(c3C2C1O)OC(c1ccc(O)c(O)c1)C(O)C4` (centres unmarked) [PAC A1, PAC-A1] gave a CC50 with HCT-8 cells greater than 400 µg/mL. In the data set with hCoV-OC43, the EC50 is 4.10 ± 0.71 µg/mL (≈ 7.11 µM), the EC90 was 139.35 ± 2.06 µg/mL (≈ 242 µM) and the “SI (ratio of CC50 to EC50)” value is on record as greater than 97.56.
For the compound `Oc1cc(O)c2c(c1)O[C@H](c1ccc(O)c(O)c1)[C@@H](O)[C@@H]2c1c(O)cc(O)c2c1O[C@H](c1ccc(O)c(O)c1)[C@@H](O)C2` [PAC B3, PAC-B3], the CC50 in the data set on HCT-8 cells is greater than 400 µg/mL. Also, in the data set on hCoV-OC43, the EC50 was 134.92 ± 4.14 µg/mL (≈ 233 µM), the EC90 was greater than 400 µg/mL and the “SI (ratio of CC50 to EC50)” value is listed as greater than 2.96.
`Oc1cc(O)c2c(c1)O[C@H](c1ccc(O)c(O)c1)[C@H](O)[C@H]2c1c(O)cc(O)c2c1O[C@H](c1ccc(O)c(O)c1)[C@@H](O)C2` [PAC B1, PAC-B1]: the CC50 in the data set with HCT-8 cells was greater than 400 µg/mL. Besides, in the data set with hCoV-OC43, the EC50 is 167.02 ± 6.51 µg/mL (≈ 289 µM), the EC90 was greater than 400 µg/mL and the “SI (ratio of CC50 to EC50)” value is recorded as greater than 2.39.
In turn, `Oc1cc(O)c2c(c1)O[C@H](c1ccc(O)c(O)c1)[C@H](O)[C@H]2c1c(O)cc(O)c2c1O[C@H](c1ccc(O)c(O)c1)[C@H](O)C2` [PAC B2, PAC-B2] showed a CC50 in the data set with HCT-8 cells greater than 400 µg/mL. Besides, in the data set with hCoV-OC43, the EC50 was 142.41 ± 8.93 µg/mL (≈ 246 µM), the EC90 was greater than 400 µg/mL and the “SI (ratio of CC50 to EC50)” value was greater than 2.81.
In the data set on HCT-8 cells, `Oc1cc(O)c2c(c1)O[C@@]1(c3ccc(O)c(O)c3)Oc3cc(O)c4c(c3[C@@H]2[C@H]1O)O[C@H](c1ccc(O)c(O)c1)[C@H](O)C4` [PAC A2, PAC-A2] came in with a CC50 greater than 400 µg/mL. Also, in the data set with hCoV-OC43, the EC50 amounted to 6.58 ± 0.40 µg/mL (≈ 11.4 µM), the EC90 was determined as 100.74 ± 0.66 µg/mL (≈ 175 µM) and the “SI (ratio of CC50 to EC50)” value is reported as greater than 60.79.

Values taken from article PMC11242173 (International Journal of Molecular Sciences, 2024).
